According to patent US20040253266A1, “Biological compositions and methods for treatment of esophageal cancer” (priority 2003, published 2004):

Experiments:
[1] = test system: esophageal tumor SGA-73 cells; test: TA1 mouse model of human esophageal cancer (SGA-73 cells s.c.), tumor growth; format: in vivo, TA1 mice; conditions: 31st day, after 30 days treatment; AY/NY 0.3 ml per day oral, CTX 30 mg/kg per day s.c.
Experimental: (§1) The oral composition comprising 10^8 cells per ml of activated and conditioned yeast cells of the strain Saccharomyces cerevisiae Hansen strain AS2.375 was prepared by the methods described in Section 5.1 and subsections therein.
The mice injected with tumor cells were kept for 3 days and then divided into 4 experimental groups of ten mice per group and one control group. The four experimental groups were triplicated (i.e., using a total of 120 mice in the experimental groups).
The mice received the biological compositions, untreated yeast cells, CTX or saline on the same day as the tumor cells were transplanted. The mice in group CK2 also started receiving saline on the same day as the other four groups. The biological compositions, untreated yeast cells and saline were administered orally by a feeding tube and the CTX by subcutaneous injection for 30 consecutive days.

[2] = test system: esophageal tumor SGA-73 cells; test: TA1 mouse model of human esophageal cancer (SGA-73 cells), survival over 6 months; format: in vivo, TA1 mice; conditions: for Number of live animals remaining in the groups after 30 days of treatment: 30 mice per group
Experimental: The survival time of mice after tumor injection and treatment was studied.
as §1
The animals were prepared in a similar manner as described in Section 8.1.
The mice injected with tumor cells were kept for 3 days and then divided into 4 experimental groups of ten mice per group and one control group. The four experimental groups were triplicated (i.e., using a total of 120 mice in the experimental groups). In group 2AY, the mice received 0.5 ml of the biological composition once per day. In group 2NY, the mice received 0.5 ml of the untreated yeast cells once per day. In group 2CTX, the mice were injected subcutaneously with 45 mg of cyclophosphamide (CTX) per kg body weight per day. In group 2CK1, the mice received 0.5 ml of physiological saline once per day.
The mice received the biological compositions, untreated yeast cells, CTX or saline on the same day as the tumor cells were transplanted. The mice in group 2CK2 also started receiving saline on the same day as the other four groups. The biological compositions, untreated yeast cells and saline were administered orally by a feeding tube and the CTX by subcutaneous injection for 30 consecutive days. The mice were observed over 6 months from the day of tumor inoculation and survival was recorded. The weight of the mice and the weight of the tumor were determined by standard techniques.

[3] = test system: esophageal cancer; test: Wistar rat model of human esophageal cancer (MBNA-induced), tumor growth; format: in vivo, Wistar rats; conditions: 31st day, after 30 days treatment; AY/NY 1.5 ml per day oral, VDS 3.0 mg/kg i.v. once a week
Experimental: as §1
The four experimental groups were triplicated (i.e., using a total of 120 rats in the experimental groups).

[4] = test system: esophageal cancer; test: Wistar rat model of esophageal cancer, survival over 6 months; format: in vivo, Wistar rats; conditions: for Number of live animals remaining in the groups after 30 days of treatment: 30 rats per group
Experimental: The following example illustrates the benefit of a biological composition of the invention in a Wistar rat model of original position engrafted human esophageal cancer. The survival time of rats after tumor injection and treatment was studied.
as §1
The animals were prepared in a similar manner as described in Section 6.1.
The rats that were fed with MBNA for 30 days were divided into 4 experimental groups of ten rats per group and one control group. The four experimental groups were triplicated (i.e., using a total of 120 rats in the experimental groups). In group 2AY, the rats received 1.5 ml of the biological composition in two doses per day. In group 2NY, the rats received 1.5 ml of the untreated yeast cells in two doses per day. […] In group 2CK1, the rats received 1.5 ml of physiological saline in two doses per day.
The rats received the biological compositions, untreated yeast cells, VDS or saline on the same day as the tumor cells were transplanted. The rats in group 2CK2 also started receiving saline on the same day as the other four groups. […] The rats were observed over 6 months from the day of tumor inoculation and survival was recorded. The weight of the rats, the weight of the esophagus, and the weight of the tumor were determined by standard techniques.

[5] = 0 month after cessation of treatment
[6] = 1 month after cessation of treatment
[7] = 2 months after cessation of treatment
[8] = 3 months after cessation of treatment
[9] = 4 months after cessation of treatment
[10] = 5 months after cessation of treatment
[11] = 6 months after cessation of treatment
[12] = mice that survived the 6 month observation
[13] = rats that survived the 6 month observation

O=P1(N(CCCl)CCCl)NCCCO1 (stereo not shown) [CTX, cyclophosphamide]
mean weight of mice and standard deviation [1]: 18.2 ± 2.8 g
mean weight of tumor nodules and standard deviation [1]: 384 ± 31 mg
Number of live animals remaining in the groups after 30 days of treatment [2, 5]: 30
Number of live animals remaining in the groups after 30 days of treatment [2, 6]: 30
survival time of mice ([2]; 2AY/2NY 0.5 ml per day oral, 2CTX 45 mg/kg per day s.c.): all died after four months
Number of live animals remaining in the groups after 30 days of treatment [2, 7]: 28
Number of live animals remaining in the groups after 30 days of treatment [2, 8]: 22
Number of live animals remaining in the groups after 30 days of treatment [2, 9]: 18
Number of live animals remaining in the groups after 30 days of treatment [2, 10]: 0
Number of live animals remaining in the groups after 30 days of treatment [2, 11]: 0
mean weight of mice and standard deviation [2, 12]: all animals dead
mean weight of tumor nodules and standard deviation [2, 12]: all animals dead

CC[C@]1(O)C[C@@H]2CN(CCc3c([nH]c4ccccc34)[C@@](C(=O)OC)(c3cc4c(cc3OC)N(C)[C@H]3[C@@](O)(C(N)=O)[C@H](O)[C@]5(CC)C=CCN6CC[C@]43[C@@H]65)C2)C1 [VDS, vindesine]
mean weight of rats and standard deviation [3]: 173 ± 15 g
mean weight of tumor nodules and standard deviation [3]: 281 ± 31 mg
Number of live animals remaining in the groups after 30 days of treatment [4, 5]: 30
Number of live animals remaining in the groups after 30 days of treatment [4, 6]: 30
survival time of rats ([4]; 2AY/2NY 1.5 ml per day oral, 2VDS 3.0 mg/kg per week for four weeks): all died after five months
Number of live animals remaining in the groups after 30 days of treatment [4, 7]: 30
Number of live animals remaining in the groups after 30 days of treatment [4, 8]: 30
Number of live animals remaining in the groups after 30 days of treatment [4, 9]: 21
Number of live animals remaining in the groups after 30 days of treatment [4, 10]: 3
Number of live animals remaining in the groups after 30 days of treatment [4, 11]: 0
mean weight of esophagus and standard deviation [4, 13]: all animals dead
mean weight of rats and standard deviation [4, 13]: all animals dead
mean weight of tumor nodules and standard deviation [4, 13]: all animals dead
